The star is where a group is joined. 5‑TAMRA = CN(C)c1ccc2c(-c3ccc(C(=O)*)cc3C(=O)[O-])c3ccc(N(C)C)cc3[o+]c2c1
Key:
OST3 complex [1] = target: T1, OST3 complex (Saccharomyces cerevisiae, UniProt P39007); assay: Peptide competition assay (unlabeled peptide vs TAMRA-DANYTK); assay type: biochemical; details: 0.4 μM purified OST3 complex, 150 μM LLO C20, 25 μM TAMRA-DANYTK, 25 μM unlabeled competitor peptide, 30 min, relative to control without competitor
T1 construct: were purified separately from strains expressing only one type of complex; made in house; host or cells: Saccharomyces cerevisiae, BY4742-derived strain ost6::LEU2MX6 OST4-1D4::kanMX6 YEp352-OST3
Protocol: Figure 2 In vitro glycosylation assay for OST activity and peptide sequence preferences.A, schematic representation of the in vitro reaction setup for yeast OST activity. The peptide substrate containing the glycosylation sequon N-X-(S/T) is labeled with the TAMRA fluorophore at the N-terminus. Incubation with OST, synthetic LLO, and a divalent metal ion (Mn^2+preferred) results in the transfer of the sugar moiety (two GlcNAcs, blue squares) from the LLO to the fluorescently labeled peptide, yielding a glycopeptide product. […] The glycopeptide elutes earlier than the peptide and amounts of glycopeptide are quantified at different reaction time points by peak integration. C, quantification of kinetic parameters for synthetic peptide TAMRA-DANYTK. […] Glycopeptide product was measured by UPLC and turnover rates were determined by linear regression of the initial phase of the reaction and taking into account the enzyme concentration. […] E, quantification of kinetic parameters for synthetic peptide TAMRA-YANATS. […] Turnover rates were determined as in C. […]
(§1) Samples were analyzed by reverse-phase chromatography using a UPLC Dionex UltiMate 3000 with an Accucore 150-C18 100 × 2.1 mm 2.6 μm column (Thermo Fisher Scientific). […]

OST3 complex [2] = target: T1, OST3 complex; assay: Turnover of synthetic TAMRA-labeled peptides; assay type: biochemical; details: 0.5 µM OST3 complex, 20 µM peptide
Protocol: TAMRA-labeled peptides with 5-TAMRA at the N-terminus and an amide group at the C-terminus were synthesized by WatsonBio Sciences. Unlabeled peptides (Table S1) were synthesized by Genscript Corp. and were designed so that the asparagine of the glycosylation sequon was in the middle (except for Peptide 8). Lyophilized peptides were dissolved in dimethyl sulfoxide (DMSO), unless specified otherwise, to a 3 mM stock solution and further diluted in ddH2O for reactions.
(§2) Reactions were performed in a total volume of 10 μl containing the specified amount of TAMRA-labeled peptide, synthetic LLO analog, 10 mM MnCl2, and purified OST after size-exclusion chromatography in purification buffer (50 mM Hepes, pH 7.5, 150 mM NaCl, 1 mM MgCl2, 1 mM MnCl2, 10% (v/v) glycerol, 0.03% (w/v) DDM, and 0.006% (w/v) CHS). The concentration of OST was calculated using the molecular weight of 280 kDa. The reaction mixture was preincubated at 30 °C for 5 min before adding the peptide to start the reaction that proceeded at 30 °C. Time points were taken such that the reaction was in the linear phase. At each time point, 1 μl reaction mixture was taken and the reaction was stopped by dilution in stop solution (0.1% FA in 10% ACN, 10 mM KPO4 pH 8.0) such that the final peptide concentration was 2 μM.
(§3) Samples were analyzed by reverse-phase chromatography using a UPLC Dionex UltiMate 3000 with an Accucore 150-C18 100 × 2.1 mm 2.6 μm column (Thermo Fisher Scientific). One microliter sample (2 pmol of peptide) was injected and measured by isocratic elution using a certain proportion of ACN (15% ACN for peptide TAMRA-DANYTK; 20% ACN for peptide TAMRA-YANATS) in 10 mM KPO4, pH 8.0 buffer so that the glycopeptide and peptide are fully separated and elute within 3 min at a constant flow rate of 0.7 ml/min, with a column temperature of 45 °C. The peptide and glycopeptide were detected through TAMRA fluorescence (excitation wavelength: 546 nm; emission wavelength: 579 nm).
The UPLC profiles were analyzed by integrating the peaks corresponding to the glycopeptide and peptide using Chromeleon 7 (Dionex) and calculating the amount of glycopeptide formed using the following equation, as previously described ([43]): [GP]=PeakareaGP/PeakareaP+PeakareaGP×[P] […]
Supp. Table 2. Turnover of synthetic TAMRA-labeled peptides
Peptide Glycopeptide Turnover after 5 min Relative turnover […]
TAMRA, tetramethylrhodamine
Turnover of TAMRA-labeled peptides after 5 min was determined using 0.5 µM OST3 complex, 20 µM indicated peptide and 150 µM LLO C20. Relative turnover compared to TAMRA-DANYTK is given by defining TAMRA-DANYTK turnover as 100 %.

yeast OST3 complex = assay: Inhibition of OST activity by nonhydrolyzable LLO analogs; assay type: biochemical, Saccharomyces cerevisiae; details: for IC50: 0.1 μM purified OST3 complex, 25 μM TAMRA-YANATS, 50 μM LLO C20, inhibitor 2.5–2000 μM (Ia) or 2.5–3000 μM (Ib), 30 °C, read-out: IC50 (apparent)
Text: Figure 4 Inhibition of yeast OST activity by synthetic nonhydrolyzable LLOs in vitro.A, structure of synthetic nonhydrolyzable LLOs. Synthetic nonreactive LLOs have two GlcNAcs as the sugar moiety, followed by pyrophosphonate and lipid moieties of variable stereochemistry and length, denoted by the carbon chain length. Ia, GlcNAc2-(OH)CPP-(S)-citronellylneryl (C20); Ib, GlcNAc2-CPP-(S)-citronellylfarnesyl (C25). Note that Ia is a hydroxy-phosphonate (with an additional OH group, single diastereomer, R/S configuration unassigned), while Ib is a phosphonate without an additional hydroxyl group. Figure modified from Ramirez et al. 2017 ([42]). B, quantification of inhibition by nonhydrolyzable LLOs shown in A. Reactions were performed with 0.1 μM purified OST3 complex, 25 μM peptide TAMRA-YANATS, 50 μM LLO C20, and varying concentrations of the different synthetic inhibitory LLOs. Glycopeptide product was measured by UPLC and turnover rates were determined from the linear initial phase of the reaction. % inhibition was determined relative to a control reaction without nonhydrolyzable LLOs. […]
(§4) Concentrations of reactive LLO analogs were determined by in vitro glycosylation (see below) by titrating varying amounts of LLO against a known amount of fluorescently labeled peptide. Concentrations of nonreactive LLO analogs were determined by in vitro glycosylation by titrating varying amounts of nonreactive LLO while using known amounts of both fluorescently labeled peptide and active LLO analog.
Reactions were performed in a total volume of 10 μl containing the specified amount of TAMRA-labeled peptide, synthetic LLO analog, 10 mM MnCl2, and purified OST after size-exclusion chromatography in purification buffer (50 mM Hepes, pH 7.5, 150 mM NaCl, 1 mM MgCl2, 1 mM MnCl2, 10% (v/v) glycerol, 0.03% (w/v) DDM, and 0.006% (w/v) CHS). The concentration of OST was calculated using the molecular weight of 280 kDa. […]
as §1

TbStt3A = details: reported for TbStt3A, compound 34d; ref [42]; cited from earlier work
Text: The nonreactive LLO analogs Ia and Ib had the same disaccharide and lipid structures as the reactive LLO substrates LLO C20 and LLO C25, respectively. However, they differed from their reactive counterpar ...

OST3 complex [3] = target: T1, OST3 complex; assay: In vitro glycosylation assay, kinetic parameters for synthetic LLOs, OST3 complex; assay type: biochemical; details: OST3 complex, under the tested conditions
Text: Synthetic LLO substrates all have two GlcNAcs as the sugar moiety, followed by pyrophosphate and lipid moieties (−R) of variable stereochemistry and length, denoted by the carbon chain length. C10, (S)-citronellyl; C15, farnesyl; C20, (S)-citronellylneryl; C25, (S)-citronellylfarnesyl; C90, represents the natural yeast dolichol lipid tail structure where n = 15. Figure modified from Ramirez et al. 2017 ([42]). B, quantification of kinetic parameters for the synthetic LLOs. Reactions were performed with 0.1 μM purified OST3 complex, 25 μM peptide TAMRA-YANATS, and varying concentrations of the different synthetic LLOs. Glycopeptide product was measured by UPLC and turnover rates were determined from the linear initial phase of the reaction. The mean of three reactions is shown and the data were fitted by nonlinear regression according to the Michaelis–Menten formula (R^2 = 0.9842 (LLO C15), 0.9685 (LLO C20), 0.9261 (LLO C25)) using Prism. Error bars indicate standard deviations from the mean (n = 3).
as §4
as §2, with “At each time point, 1 μl reaction mixture was taken and the reaction was stopped by dilution in stop solution (0.1% FA in 10% ACN, 10 mM KPO4 pH 8.0) such that the final peptide concentration was 2 μM.” left out
as §3
The UPLC profiles were analyzed by integrating the peaks corresponding to the glycopeptide and peptide using Chromeleon 7 (Dionex) and calculating the amount of glycopeptide formed using the following equation, as previously described ([43]): [GP]=PeakareaGP/PeakareaP+PeakareaGP×[P]
[GP] is the concentration of glycopeptide, Peak areaGP/P is the area under the curves measured for the glycopeptide or peptide, respectively, and [P] is the concentration of peptide at the start of the reaction. […] Unless specified otherwise, turnover rates were determined from the initial rates of reaction by taking into account the enzyme concentration in the reaction. […]

[4] = target: Ost3p-containing yeast oligosaccharyltransferase complex (S. cerevisiae) (UniProt P41543)
[5] = target: Ost6p-containing yeast oligosaccharyltransferase complex (S. cerevisiae) (UniProt P41543)

ADTYANATSDVL [Peptide 5]
% inhibition of TAMRA-DANYTK glycopeptide formation (OST3 complex [1]): 50%

TAMRA-ADTYANATSDVL [TAMRA-labeled Peptide 5]
Turnover after 5 min (OST3 complex [2]; 150 µM LLO C20): 10%
Glycopeptide detected (OST3 complex [2]; 150 µM LLO C20, 5 min): Yes
Relative turnover (OST3 complex [2]; TAMRA-DANYTK turnover defined as 100 %, 5 min, 150 µM LLO C20): 167%

GlcNAc2-(OH)CPP-(S)-citronellylneryl [Ia]
IC50 (yeast OST3 complex): 44 µM
relative inhibitory potency, in words (yeast OST3 complex; OST3 complex): more potent inhibitor of the yeast OST3 complex than Ib

GlcNAc2-CPP-(S)-citronellylfarnesyl [Ib]
IC50 (TbStt3A): 26 ± 3 µM
IC50 (yeast OST3 complex): 198 µM

CC(=O)NC1C(OC2C(CO)OC(OP(=O)(O)OP(=O)(O)OCCC(C)CCC=C(C)C)C(NC(C)=O)C2O)OC(CO)C(O)C1O (stereo not drawn) [LLO C10]
activity as LLO substrate (OST3 complex [3]): no detectable activity

B1: TAMRA-DANYTK-NH2 (peptide)
peptide: {5‑TAMRA}-DANYTK-NH2
SMILES: C[C@H](NC(=O)[C@H](CC(=O)O)NC(=O)c1ccc(-c2c3ccc(N(C)C)cc3[o+]c3cc(N(C)C)ccc23)c(C(=O)[O-])c1)C(=O)N[C@@H](CC(N)=O)C(=O)N[C@@H](Cc1ccc(O)cc1)C(=O)N[C@H](C(=O)N[C@@H](CCCCN)C(N)=O)[C@@H](C)O
apparent KM of the peptide in the in vitro glycosylation assay (Michaelis-Menten fit; about 1 μM OST3 complex, 150 μM LLO C20, 10-400 μM peptide, 30 °C) [4]: 201 µM

B2: TAMRA-YANATS (peptide)
peptide: {5‑TAMRA}-YANATS-NH2
SMILES: C[C@H](NC(=O)[C@H](Cc1ccc(O)cc1)NC(=O)c1ccc(-c2c3ccc(N(C)C)cc3[o+]c3cc(N(C)C)ccc23)c(C(=O)[O-])c1)C(=O)N[C@@H](CC(N)=O)C(=O)N[C@@H](C)C(=O)N[C@H](C(=O)N[C@@H](CO)C(N)=O)[C@@H](C)O
apparent KM of the peptide in the in vitro glycosylation assay (Michaelis-Menten fit; 0.1 μM OST3 complex, 100 μM LLO C20, 10-500 μM peptide, 30 °C) [4]: 55.6 µM
apparent KM of the peptide in the in vitro glycosylation assay (Michaelis-Menten fit; 0.1 μM OST6 complex, 100 μM LLO C20, varying peptide, 30 °C) [5]: 44.8 µM

From publication PMC8191290, “Substrate specificities and reaction kinetics of the yeast oligosaccharyltransferase isoforms” (The Journal of Biological Chemistry, 2021)
